One test relates to Wistar rats. Briefly: Acetic Acid-Induced Writhing in Rats Test. It counts as in vivo. As to conditions: Rattus norvegicus, ip, 0.5 ml 1% acetic acid i.p., compound given 15 min after acetic acid, writhes counted 60-75 min after acetic acid, dose reducing to less than 16 writhes in 50% of the animals, read-out: Writhing in Rats Test ED50 in mg/kg body weight. On the procedure:
The Acetic Acid-Induced Writhing in Rats Test is known to be a useful tool for the evaluation of the analgesic properties of given test compound (see in connection herewith Drug Research, 25, 1505-1509 (1975)).
Wistar rats weighing about 100g were used throughout. They were injected i.p. with 0.5 ml of a 1% aqueous solution of acetic acid and placed in individual glass containers for observation. […] 5 Min. later (15 min. after the acetic acid treatment) the test compound was administered. […] The lowest effective dose in 50% of the test animals (ED₅₀) was determined as that dose in mg/kg body weight capable of reducing the number of writhes during the 15 minutes observation period to less than 16 writhes in 50% of the tested animals.
Said ED₅₀ values for a number of compounds having the formula (I) and the pharmaceutically acceptable acid-addition salts thereof are gathered in Table 1.
Background: In writhing tests, fewer writhes than in controls are read as antinociception.

Another test relates to Male Wistar rats. Description: Tail Withdrawal Test. It counts as in vivo. The note with it: Rattus norvegicus, iv, tail immersed in water at 55°C, dose suppressing the tail withdrawal response for more than 10 seconds in 50% of the animals, read-out: Tail Witdrawal Test ED50 in mg/kg body weight. On the procedure: Male Wistar rats weighing 200g ± 5g were fasted overnight, water being available at libitum. Aqueous solutions, made isotonic with sodium chloride, of the test compounds at various concentrations were administered to the test animals intraveneously (i.v.). The thus treated rats were put into individual restraining cages. At various time periods after administration, the lower 5 cm portion of the tail was immersed into a cup filled with water at a constant temperature of 55°C. The typical tail withdrawal response was evaluated during a 10 sec. period after the immersion. ED₅₀ values in mg/kg body weight were determined as that dose of the test compound capable of suppressing in 50% of the tested animals the typical tail withdrawal response during a time period exceeding 10 seconds. Said ED₅₀ values for a number of compounds having the formula (I) and the pharma- ceutically acceptable acid-addition salts thereof are gathered in Table 1.

Each structure is given as a SMILES string. Where a name gives a salt, the structure may show the parent alone.

On to `Clc1ccc(N2CCN(C/C=C/c3ccccc3)CC2)nn1` [compound 1, (E)-3-chloro-6-[4-(3-phenyl-2-propenyl)-1-piperazinyl]pyridazine], for which the ED50 stood at 5 mg/kg with Wistar rats and 20 mg/kg with Male Wistar rats.

Regarding `CC1CN(C/C=C/c2ccccc2)CCN1c1ccc(Cl)nn1` (centres unmarked) [compound 2, (E)-3-chloro-6-[2-methyl-4-(3-phenyl-2-propenyl)-1-piperazinyl]pyridazine monohydrochloride.hemihydrate], the values for the ED50 in the test with Wistar rats and in the test on Male Wistar rats were 5 mg/kg and 10 mg/kg, respectively.

Consider `Brc1ccc(N2CCN(C/C=C/c3ccccc3)CC2)nn1` [compound 3, (E)-3-bromo-6-[4-(3-phenyl-2-propenyl)-1-piperazinyl]pyridazine], for which the ED50 in the test on Wistar rats turned out to be 10 mg/kg.

For the compound `COc1ccc(N2CCN(C/C=C/c3ccccc3)CC2)nn1` [compound 4, (E)-3-methoxy-6-[4-(3-phenyl-2-propenyl)-1-piperazinyl]pyridazine], the values for the ED50 in the test with Wistar rats and in the test with Male Wistar rats were 5 mg/kg and 40 mg/kg, respectively.

Regarding `Clc1ccc(/C=C/CN2CCN(c3ccc(Cl)nn3)CC2)cc1` [compound 5, (E)-3-chloro-6-[4-[3-(4-chlorophenyl)-2-propenyl]-1-piperazinyl]pyridazine], the ED50 with Wistar rats is 40 mg/kg.

Regarding `Clc1ccc(N2CCCN(C/C=C/c3ccccc3)CC2)nn1` [compound 7], the ED50 is 20 mg/kg in the test on Wistar rats and 40 mg/kg with Male Wistar rats.

Take `C(=C\c1ccccc1)/CN1CCN(c2cccnn2)CC1` [compound 8]: the ED50 in the test with Wistar rats stood at 2.5 mg/kg.

For the compound `COc1ccc(N2CCN(C/C=C/c3ccc(F)cc3)CC2)nn1` [compound 9], the ED50 in the test with Wistar rats amounted to 10 mg/kg.

Consider `Fc1ccc(/C=C/CN2CCN(c3ccc(Cl)nn3)CC2)cc1` [compound 10], for which, in the test on Wistar rats, the ED50 worked out at 20 mg/kg.

`Fc1ccc(/C=C/CN2CCN(c3cccnn3)CC2)cc1` [compound 11]: the ED50 in the test on Wistar rats is 40 mg/kg.

As for `Clc1ccc(N2CCN(C/C=C/c3cccs3)CC2)nn1` [compound 12], in the test on Wistar rats, the ED50 amounted to 10 mg/kg.

Consider `Cc1ccc(/C=C/CN2CCN(c3ccc(Cl)nn3)CC2)cc1` [compound 13], for which the ED50 with Wistar rats was 40 mg/kg.

For the compound `COc1ccc(/C=C/CN2CCN(c3ccc(Cl)nn3)CC2)cc1` [compound 14], the ED50 with Wistar rats came to 40 mg/kg.

For `COc1ccc(/C=C/CN2CCN(c3cccnn3)CC2)cc1` [compound 18], the ED50 with Wistar rats amounted to 40 mg/kg.

For `C(=C\c1ccccc1)/CN1CCCN(c2ccc(-c3ccccc3)nn2)CC1` [compound 19], in the test with Wistar rats, the ED50 turned out to be 10 mg/kg.

For the compound `Cl.Cl.Clc1ccc(N2CCN(C/C=C/c3ccccc3)CC2)nn1` [compound 37, (E)-3-chloro-6-[4-(3-phenyl-2-propenyl)-1-piperazinyl]pyridazine dihydrochloride], the ED50 with Wistar rats was 10 mg/kg; in the test with Male Wistar rats it was less than 40 mg/kg.

Turning to `[O-][N+]1(C/C=C/c2ccccc2)CCN(c2ccc(Cl)nn2)CC1` [compound 38, (E)-3-chloro-6-[4-(3-phenyl-2-propenyl)-1-piperazinyl]pyridazine, 4-oxide], the ED50 with Wistar rats was 10 mg/kg; in the test with Male Wistar rats it was no less than 20 mg/kg.
